Test results reported in ChEMBL document CHEMBL5724696, “Autophagy assay results for EUbOPEN Chemogenomics Library” (2024).

Legend:
Type in all cases: functional, Homo sapiens
TERT-RPE1 = assay: (§1) Here: values are normalized to the negative (DMSO; defined as 0% autophagy induction) and positive (250nM Torin1; mTOR inhibitor; defined as maximal inducer of autophagy = 100%) control compounds and represented as % of autophagy induction. […] The impact of autophagy induction on cells is complex and depends on the affected target. As such, the magnitude of a phenotype may not be equally mirrored in the %-value of autophagy induction and vice versa. The dynamics of the induction may indicate the mode of activation: e.g. activation via phosphorylation or a signaling cascade may occur fast, while activation via transcription factors may take considerably longer. […] Of note, treatment concentrations may be sub-optimal for specific compounds, leading to false negative annotations.; conditions: Culturing Media DMEM/F12 (1:1), 1 % Penicillin/Streptomycin, 10% Fetal bovin serum Add-On: No, Screening Media Control DMEM/F12 (1:1), Screening Media Samples DMEM/F12 (1:1)
U2OS [1] = assay: as §1; conditions: Culturing Media DMEM, 1 % Penicillin/Streptomycin, 10% Fetal bovin serum Add-On: No, Screening Media Control DMEM, Screening Media Samples DMEM
U2OS [2] = assay: as §1; conditions: Culturing Media DMEM, 1 % Penicillin/Streptomycin, 10% Fetal bovin serum Add-On: No, Screening Media Control DMEM, Screening Media Samples DMEM; remark: listed apart in the source
[3] = Compound Concentration 0.5 uM, Timepoint 12 hours
[4] = Compound Concentration 0.5 uM, Timepoint 24 hours
[5] = Compound Concentration 0.5 uM, Timepoint 36 hours
[6] = Compound Concentration 0.5 uM, Timepoint 60 hours
[7] = Compound Concentration 2 uM, Timepoint 12 hours
[8] = Compound Concentration 2 uM, Timepoint 24 hours
[9] = Compound Concentration 2 uM, Timepoint 36 hours
[10] = Compound Concentration 2 uM, Timepoint 60 hours
[11] = Compound Concentration 10 uM, Timepoint 12 hours
[12] = Compound Concentration 10 uM, Timepoint 24 hours
[13] = Compound Concentration 10 uM, Timepoint 36 hours
[14] = Compound Concentration 10 uM, Timepoint 60 hours

O=C(Nc1ccc(Cl)cc1)Nc1cccc(-c2cccc(N3CCCC3)n2)c1
autophagy induction (TERT-RPE1; [3]): -4.744% | autophagy induction (TERT-RPE1; [4]): -3.44% | autophagy induction (TERT-RPE1; [5]): 1.901% | autophagy induction (TERT-RPE1; [6]): 11.3473% | autophagy induction (TERT-RPE1; [7]): -2.257% | autophagy induction (TERT-RPE1; [8]): -2.102% | autophagy induction (TERT-RPE1; [9]): -2.6063% | autophagy induction (TERT-RPE1; [10]): -0.1832% | autophagy induction (TERT-RPE1; [11]): -0.5349% | autophagy induction (TERT-RPE1; [12]): 20.6675% | autophagy induction (TERT-RPE1; [13]): 44.4615% | autophagy induction (TERT-RPE1; [14]): 64.0305% | autophagy induction (U2OS [1]; [3]): 3.433% | autophagy induction (U2OS [1]; [4]): -0.7352% | autophagy induction (U2OS [1]; [5]): -0.9133% | autophagy induction (U2OS [1]; [6]): -1.608% | autophagy induction (U2OS [1]; [7]): -0.4509% | autophagy induction (U2OS [1]; [8]): -1.587% | autophagy induction (U2OS [1]; [9]): -2.698% | autophagy induction (U2OS [1]; [10]): -2.799% | autophagy induction (U2OS [1]; [11]): -2.177% | autophagy induction (U2OS [1]; [12]): -0.7353% | autophagy induction (U2OS [1]; [13]): -4.281% | autophagy induction (U2OS [1]; [14]): 0.461% | autophagy induction (U2OS [2]; [3]): 17.3616% | autophagy induction (U2OS [2]; [4]): 17.7757% | autophagy induction (U2OS [2]; [5]): 11.2699% | autophagy induction (U2OS [2]; [6]): 1.747% | autophagy induction (U2OS [2]; [7]): 20.6353% | autophagy induction (U2OS [2]; [8]): 15.806% | autophagy induction (U2OS [2]; [9]): 8.553% | autophagy induction (U2OS [2]; [10]): 8.133% | autophagy induction (U2OS [2]; [11]): -2.269% | autophagy induction (U2OS [2]; [12]): 13.0876% | autophagy induction (U2OS [2]; [13]): 22.7984% | autophagy induction (U2OS [2]; [14]): 31.1337%

CNc1nc(NCc2ccc(NS(C)(=O)=O)cc2Cl)cc(-c2ccccn2)n1
autophagy induction (TERT-RPE1; [3]): -1.3719% | autophagy induction (TERT-RPE1; [4]): -4.63% | autophagy induction (TERT-RPE1; [5]): -8.2685% | autophagy induction (TERT-RPE1; [6]): -4.377% | autophagy induction (TERT-RPE1; [7]): 1.95% | autophagy induction (TERT-RPE1; [8]): -3.372% | autophagy induction (TERT-RPE1; [9]): -5.053% | autophagy induction (TERT-RPE1; [10]): 1.232% | autophagy induction (TERT-RPE1; [11]): 14.7912% | autophagy induction (TERT-RPE1; [12]): 21.0269% | autophagy induction (TERT-RPE1; [13]): 30.7963% | autophagy induction (TERT-RPE1; [14]): 56.217% | autophagy induction (U2OS [1]; [3]): -4.8332% | autophagy induction (U2OS [1]; [4]): -1.906% | autophagy induction (U2OS [1]; [5]): -1.0253% | autophagy induction (U2OS [1]; [6]): -0.2766% | autophagy induction (U2OS [1]; [7]): -0.6465% | autophagy induction (U2OS [1]; [8]): 0.2341% | autophagy induction (U2OS [1]; [9]): -0.0484% | autophagy induction (U2OS [1]; [10]): 0.9042% | autophagy induction (U2OS [1]; [11]): -8.81% | autophagy induction (U2OS [1]; [12]): -3.343% | autophagy induction (U2OS [1]; [13]): -3.38% | autophagy induction (U2OS [1]; [14]): -6.97% | autophagy induction (U2OS [2]; [3]): 14.6542% | autophagy induction (U2OS [2]; [4]): 1.484% | autophagy induction (U2OS [2]; [5]): 3.538% | autophagy induction (U2OS [2]; [6]): 8.159% | autophagy induction (U2OS [2]; [7]): 23.6541% | autophagy induction (U2OS [2]; [8]): 10.7985% | autophagy induction (U2OS [2]; [9]): 11.9727% | autophagy induction (U2OS [2]; [10]): 23.1222% | autophagy induction (U2OS [2]; [11]): 27.3974% | autophagy induction (U2OS [2]; [12]): 31.2749% | autophagy induction (U2OS [2]; [13]): 36.9575% | autophagy induction (U2OS [2]; [14]): 46.6456%

Cc1c(C2=CCN(C(=O)N(C)C(C)C)CC2)nnn1-c1cccnc1F
autophagy induction (TERT-RPE1; [3]): -7.351% | autophagy induction (TERT-RPE1; [4]): -10.2554% | autophagy induction (TERT-RPE1; [5]): -12.7414% | autophagy induction (TERT-RPE1; [6]): -13.7381% | autophagy induction (TERT-RPE1; [7]): -4.799% | autophagy induction (TERT-RPE1; [8]): -6.124% | autophagy induction (TERT-RPE1; [9]): -8.583% | autophagy induction (TERT-RPE1; [10]): -9.595% | autophagy induction (TERT-RPE1; [11]): -1.3221% | autophagy induction (TERT-RPE1; [12]): -2.795% | autophagy induction (TERT-RPE1; [13]): -0.6234% | autophagy induction (TERT-RPE1; [14]): 3.817% | autophagy induction (U2OS [1]; [3]): 2.838% | autophagy induction (U2OS [1]; [4]): 0.05909% | autophagy induction (U2OS [1]; [5]): -0.5317% | autophagy induction (U2OS [1]; [6]): -0.9964% | autophagy induction (U2OS [1]; [7]): -1.633% | autophagy induction (U2OS [1]; [8]): -1.565% | autophagy induction (U2OS [1]; [9]): -0.7182% | autophagy induction (U2OS [1]; [10]): -1.565% | autophagy induction (U2OS [1]; [11]): 1.202% | autophagy induction (U2OS [1]; [12]): 0.8484% | autophagy induction (U2OS [1]; [13]): 0.458% | autophagy induction (U2OS [1]; [14]): -1.904% | autophagy induction (U2OS [2]; [3]): 23.3711% | autophagy induction (U2OS [2]; [4]): 12.0378% | autophagy induction (U2OS [2]; [5]): 26.6789% | autophagy induction (U2OS [2]; [6]): 23.6658% | autophagy induction (U2OS [2]; [7]): -5.386% | autophagy induction (U2OS [2]; [8]): -5.642% | autophagy induction (U2OS [2]; [9]): -9.747% | autophagy induction (U2OS [2]; [10]): -4.534% | autophagy induction (U2OS [2]; [11]): -2.977% | autophagy induction (U2OS [2]; [12]): 0.8858% | autophagy induction (U2OS [2]; [13]): -1.59% | autophagy induction (U2OS [2]; [14]): 4.327%

Cc1cc(C)cc(C(=O)N(C)[C@H](Cc2ccc(-c3ccccc3)cc2)C(=O)N[C@@H](Cc2c[nH]c3ccccc23)C(=O)O)c1
autophagy induction (TERT-RPE1; [3]): -14.7352% | autophagy induction (TERT-RPE1; [4]): -10.2057% | autophagy induction (TERT-RPE1; [5]): -9.628% | autophagy induction (TERT-RPE1; [6]): -6.49% | autophagy induction (TERT-RPE1; [7]): -8.48% | autophagy induction (TERT-RPE1; [8]): -8.155% | autophagy induction (TERT-RPE1; [9]): -8.294% | autophagy induction (TERT-RPE1; [10]): -6.276% | autophagy induction (TERT-RPE1; [11]): -5.809% | autophagy induction (TERT-RPE1; [12]): -2.795% | autophagy induction (TERT-RPE1; [13]): -2.603% | autophagy induction (TERT-RPE1; [14]): -5.126% | autophagy induction (U2OS [1]; [3]): -3.328% | autophagy induction (U2OS [1]; [4]): -1.823% | autophagy induction (U2OS [1]; [5]): -2.116% | autophagy induction (U2OS [1]; [6]): -0.69% | autophagy induction (U2OS [1]; [7]): 4.263% | autophagy induction (U2OS [1]; [8]): 2.513% | autophagy induction (U2OS [1]; [9]): -0.01148% | autophagy induction (U2OS [1]; [10]): -0.5825% | autophagy induction (U2OS [1]; [11]): 3.263% | autophagy induction (U2OS [1]; [12]): 3.281% | autophagy induction (U2OS [1]; [13]): 1.189% | autophagy induction (U2OS [1]; [14]): 0.3614% | autophagy induction (U2OS [2]; [3]): 20.0451% | autophagy induction (U2OS [2]; [4]): 13.0827% | autophagy induction (U2OS [2]; [5]): 8.17% | autophagy induction (U2OS [2]; [6]): 4.398% | autophagy induction (U2OS [2]; [7]): 5.392% | autophagy induction (U2OS [2]; [8]): 1.718% | autophagy induction (U2OS [2]; [9]): -3.298% | autophagy induction (U2OS [2]; [10]): -11.258% | autophagy induction (U2OS [2]; [11]): 17.6344% | autophagy induction (U2OS [2]; [12]): 16.7447% | autophagy induction (U2OS [2]; [13]): 13.7232% | autophagy induction (U2OS [2]; [14]): 11.2064%
